Patent publication EP4635500A1, “THERAPEUTIC AGENT FOR BACTERIAL INFECTION” (Sumitomo Pharma Co., Ltd., priority 2022, dated 2024)
Values after ≈ are worked out from the molar mass of the structure shown. Where two headings read alike, the source gives them in different places.

Experiments:
Format in all cases: cell-based
Bacteroides spp. = assay: MIC, agar dilution, anaerobic bacteria (Example 9, Tables 17, 22); conditions: (n)=Compound A µg/mL, 0=Compound A alone antibacterial
Serratia marcescens = assay: MIC and MBC, broth microdilution (Example 4, Table 3); conditions: Serratia marcescens CDC-124 (SME-3)
Prevotella spp. = assay: MIC, agar dilution, anaerobic bacteria (Example 9, Tables 18, 23); conditions: for MIC: (n)=Compound A µg/mL, 0=Compound A alone antibacterial

For `C[C@@H](O)[C@H]1C(=O)N2C(C(=O)O)=C(S[C@@H]3CN[C@H](C(=O)N(C)C)C3)[C@H](C)[C@H]12` [MEPM, meropenem], the MIC (Bacteroides spp.; KUB No. 6503 Bacteroides thetaiotaomicron) was 0.5 µg/mL (≈ 1.3 µM), the MIC (Bacteroides spp.; KUB No. 6504 Bacteroides caccae) was 0.25 µg/mL (≈ 0.652 µM) and the MIC (Bacteroides spp.; KUB No. 6506 Bacteroides thetaiotaomicron) was 4 µg/mL (≈ 10.4 µM). The MIC (Bacteroides spp.; KUB No. 6509 Bacteroides fragilis) was greater than 512 µg/mL, the MIC (Bacteroides spp.; KUB No. 6511 Bacteroides salyersiae) was 1 µg/mL (≈ 2.61 µM) and the MIC (Bacteroides spp.; KUB No. 6513 Bacteroides fragilis) was 0.25 µg/mL (≈ 0.652 µM). For the same molecule, the MIC (Bacteroides spp.; KUB No. 6515 Bacteroides thetaiotaomicron) was 2 µg/mL (≈ 5.22 µM), the MIC (Bacteroides spp.; KUB No. 6518 Bacteroides fragilis) was 0.06 µg/mL (≈ 0.156 µM) and the MIC (Bacteroides spp.; KUB No. 6522 Bacteroides fragilis) was 0.25 µg/mL (≈ 0.652 µM). For the same molecule, the MIC (Bacteroides spp.; KUB No. 6523 Bacteroides fragilis) was 4 µg/mL (≈ 10.4 µM), the MIC (Bacteroides spp.; KUB No. 6525 Bacteroides fragilis) was 4 µg/mL (≈ 10.4 µM) and the MIC (Bacteroides spp.; KUB No. 6527 Bacteroides thetaiotaomicron) was 4 µg/mL (≈ 10.4 µM). The MIC (Bacteroides spp.; KUB No. 6530 Bacteroides thetaiotaomicron) was 2 µg/mL (≈ 5.22 µM), the MIC (Bacteroides spp.; KUB No. 6535 Bacteroides fragilis) was 0.12 µg/mL (≈ 0.313 µM) and the MIC (Bacteroides spp.; KUB No. 6544 Bacteroides vulgatus) was 1 µg/mL (≈ 2.61 µM). For the same molecule, the MIC (Bacteroides spp.; KUB No. 6545 Bacteroides thetaiotaomicron) was 2 µg/mL (≈ 5.22 µM), the MIC (Bacteroides spp.; KUB No. 6556 Bacteroides vulgatus) was 1 µg/mL (≈ 2.61 µM) and the MIC (Serratia marcescens) was 64 µg/mL (≈ 167 µM). It also gave an MIC (Prevotella spp.; KUB No. 2989 Prevotella histicola) of 0.06 µg/mL (≈ 0.156 µM), an MIC (Prevotella spp.; KUB No. 2991 Prevotella intermedia) of 0.06 µg/mL (≈ 0.156 µM) and an MIC (Prevotella spp.; KUB No. 2992 Prevotella buccae) of 0.12 µg/mL (≈ 0.313 µM). It also gave an MIC (Prevotella spp.; KUB No. 3005 Prevotella melaninogenica) of no more than 0.03 µg/mL, an MIC (Prevotella spp.; KUB No. 6558 Prevotella heparinolytica) of 0.06 µg/mL (≈ 0.156 µM) and an MIC (Prevotella spp.; KUB No. 6559 Prevotella intermedia) of no more than 0.03 µg/mL. For the same molecule, the MIC (Prevotella spp.; KUB No. 6560 Prevotella nigrescens) was no more than 0.03 µg/mL, the MIC (Prevotella spp.; KUB No. 6561 Prevotella melaninogenica) was 0.12 µg/mL (≈ 0.313 µM) and the MIC (Prevotella spp.; KUB No. 6563 Prevotella nigrescens) was no more than 0.03 µg/mL. The MIC (Prevotella spp.; KUB No. 6564 Prevotella buccae) was 0.12 µg/mL (≈ 0.313 µM), the MIC (Prevotella spp.; KUB No. 6565 Prevotella nigrescens) was 0.06 µg/mL (≈ 0.156 µM) and the MIC (Prevotella spp.; KUB No. 6567 Prevotella melaninogenica) was no more than 0.03 µg/mL. It also gave an MIC (Prevotella spp.; KUB No. 6568 Prevotella intermedia) of 0.06 µg/mL (≈ 0.156 µM), an MIC (Prevotella spp.; KUB No. 6569 Prevotella nanceiensis) of 0.5 µg/mL (≈ 1.3 µM) and an MIC (Prevotella spp.; KUB No. 6570 Prevotella intermedia) of 0.06 µg/mL (≈ 0.156 µM). The MIC (Prevotella spp.; KUB No. 6571 Prevotella denticola) was 0.06 µg/mL (≈ 0.156 µM), the MIC (Prevotella spp.; KUB No. 6572 Prevotella melaninogenica) was 0.06 µg/mL (≈ 0.156 µM) and the MIC (Prevotella spp.; KUB No. 6574 Prevotella oris) was no more than 0.03 µg/mL. For the same molecule, the MIC (Prevotella spp.; KUB No. 6575 Prevotella nigrescens) was no more than 0.03 µg/mL, the MIC (Prevotella spp.; KUB No. 6576 Prevotella intermedia) was no more than 0.03 µg/mL and the MIC (Prevotella spp.; KUB No. 6579 Prevotella pallens) was 0.06 µg/mL (≈ 0.156 µM). For the same molecule, the MIC (Prevotella spp.; KUB No. 6581 Prevotella intermedia) was 0.06 µg/mL (≈ 0.156 µM), the MIC (Prevotella spp.; KUB No. 6582 Prevotella melaninogenica) was 0.06 µg/mL (≈ 0.156 µM) and the MIC (Prevotella spp.; KUB No. 6585 Prevotella baroniae) was 0.06 µg/mL (≈ 0.156 µM). It also gave an MIC (Prevotella spp.; KUB No. 6587 Prevotella melaninogenica) of 0.06 µg/mL (≈ 0.156 µM), an MIC (Prevotella spp.; KUB No. 6588 Prevotella nigrescens) of no more than 0.03 µg/mL and an MIC (Prevotella spp.; KUB No. 6589 Prevotella buccae) of 0.12 µg/mL (≈ 0.313 µM). For the same molecule, the MIC (Prevotella spp.; KUB No. 6590 Prevotella buccae) was 0.32 µg/mL (≈ 0.834 µM), the MIC (Prevotella spp.; KUB No. 6591 Prevotella intermedia) was 0.06 µg/mL (≈ 0.156 µM) and the MIC (Prevotella spp.; KUB No. 6592 Prevotella jejuni) was 0.06 µg/mL (≈ 0.156 µM). For the same molecule, the MIC (Prevotella spp.; KUB No. 6600 Prevotella intermedia) was no more than 0.03 µg/mL, the MIC (Prevotella spp.; KUB No. 6601 Prevotella melaninogenica) was 0.12 µg/mL (≈ 0.313 µM) and the MIC (Prevotella spp.; KUB No. 6603 Prevotella melaninogenica) was 0.12 µg/mL (≈ 0.313 µM). For the same molecule, the MIC (Prevotella spp.; KUB No. 6609 Prevotella buccae) was 0.12 µg/mL (≈ 0.313 µM), the MIC (Prevotella spp.; KUB No. 6611 Prevotella nigrescens) was 0.06 µg/mL (≈ 0.156 µM) and the MIC (Prevotella spp.; KUB No. 6612 Prevotella oris) was 0.25 µg/mL (≈ 0.652 µM). The MIC (Prevotella spp.; KUB No. 6613 Prevotella buccae) was 0.12 µg/mL (≈ 0.313 µM), the MIC (Prevotella spp.; KUB No. 6614 Prevotella intermedia) was no more than 0.03 µg/mL and the MIC (Prevotella spp.; KUB No. 6615 Prevotella buccae) was 0.06 µg/mL (≈ 0.156 µM). The MIC (Prevotella spp.; KUB No. 6617 Prevotella buccae) was 0.06 µg/mL (≈ 0.156 µM), the MIC (Prevotella spp.; KUB No. 6618 Prevotella melaninogenica) was 0.06 µg/mL (≈ 0.156 µM) and the MIC (Prevotella spp.; KUB No. 6622 Prevotella loescheii) was 0.06 µg/mL (≈ 0.156 µM). It also gave an MIC (Prevotella spp.; KUB No. 6623 Prevotella nigrescens) of no more than 0.03 µg/mL, an MIC (Prevotella spp.; KUB No. 6625 Prevotella melaninogenica) of no more than 0.03 µg/mL and an MIC (Prevotella spp.; KUB No. 6626 Prevotella loescheii) of no more than 0.03 µg/mL. For the same molecule, the MIC (Prevotella spp.; KUB No. 6629 Prevotella bivia) was 0.06 µg/mL (≈ 0.156 µM), the MIC (Prevotella spp.; KUB No. 6630 Prevotella nigrescens) was no more than 0.03 µg/mL and the MIC (Prevotella spp.; KUB No. 6631 Prevotella jejuni) was 0.06 µg/mL (≈ 0.156 µM). The MIC50 (Prevotella spp.; Prevotella spp.) was 0.06 µg/mL (≈ 0.156 µM), the MIC90 (Prevotella spp.; Prevotella spp.) was 0.12 µg/mL (≈ 0.313 µM) and the MICrange (Prevotella spp.; Prevotella spp.) was no more than 0.03 to 0.5 µg/mL. It also gave an MIC (Prevotella spp.; Prevotella, KUB No. 6583 Prevotella nonceiensis) of 0.12 µg/mL (≈ 0.313 µM), an MIC (Prevotella spp.; Prevotella, KUB No. 6604 Prevotella nonceiensis) of 0.25 µg/mL (≈ 0.652 µM) and an MIC50 (Prevotella spp.; Prevotella, n=54, combination: Compound A at 4 ug/mL, read-out: MIC50) of 0.06 µg/mL. It also gave an MIC90 (Prevotella spp.; Prevotella, n=54, combination: Compound A at 4 ug/mL, read-out: MIC90) of 0.12 µg/mL and an MIC (Prevotella spp.; po, KUB No. 6566 Prevotella oralis) of no more than 0.03 µg/mL.
